Columns and labels:
[1] = tested on: human airway epithelial cells (HAECs); test: High-throughput sequencing (HTS) of miRNAs at four stages of differentiation of HAECs; conditions: for Modulation (ratio of the level of intensity of expression in log2 in two stages of differentiation) measured by high-throughput sequencing, D7 − D0 / Modulation (ratio of the level of intensity of expression in log2 in two stages of differentiation) measured by high-throughput sequencing, FC − D7 / Modulation (ratio of the level of intensity of expression in log2 in two stages of differentiation) measured by high-throughput sequencing, WD − D0 / Modulation (ratio of the level of intensity of expression in log2 in two stages of differentiation) measured by high-throughput sequencing, WD − FC / Level of intensity of expression in log2 measured by high-throughput sequencing, D0 / Level of intensity of expression in log2 measured by high-throughput sequencing, D7 / Level of intensity of expression in log2 measured by high-throughput sequencing, FC / Level of intensity of expression in log2 measured by high-throughput sequencing, WD: Table VI; for Level of intensity of expression in log2 At the differentiated stage (WD) measured in HTS: healthy human airway epithelial tissue; for Level of intensity of expression in log2 measured by high-throughput sequencing, D0: stage D0; for Level of intensity of expression in log2 measured by high-throughput sequencing, D7: stage D7; for Level of intensity of expression in log2 measured by high-throughput sequencing, FC: stage FC; for Level of intensity of expression in log2 At the differentiated stage (WD) measured in HTS / Level of intensity of expression in log2 measured by high-throughput sequencing, WD: stage WD
Method in brief: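 Cells at four air-liquid interface differentiation stages were lysed and total RNA with miRNAs purified. Adaptor Mix A or B ligation (16° C, 2-16 h) allowed 5′ or 3′ end sequencing. Abundance cut-off was 1% of total miRNAs in at least one stage.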

[2] = tested on: human airway epithelial cells (HAECs); test: Agilent miRNA chips, miRNA expression at four stages of differentiation of HAECs; conditions: for Modulation (ratio of the level of intensity of expression in log2 in two stages of differentiation) measured with the Agilent chips, D7 − D0 / Modulation (ratio of the level of intensity of expression in log2 in two stages of differentiation) measured with the Agilent chips, FC − D7 / Modulation (ratio of the level of intensity of expression in log2 in two stages of differentiation) measured with the Agilent chips, WD − D0 / Modulation (ratio of the level of intensity of expression in log2 in two stages of differentiation) measured with the Agilent chips, WD − FC / Level of intensity of expression in log2 measured with the Agilent chips, D0 / Level of intensity of expression in log2 measured with the Agilent chips, D7 / Level of intensity of expression in log2 measured with the Agilent chips, FC / Level of intensity of expression in log2 measured with the Agilent chips, WD: Table VI; for Modulation (ratio of the level of intensity of expression in log2 at two stages of differentiation), FC − D7 / Modulation (ratio of the level of intensity of expression in log2 at two stages of differentiation), WD − FC: Agilent miRNA chips, Table V; for Level of intensity of expression in log2 measured with the Agilent chips, D0: stage D0; for Level of intensity of expression in log2 measured with the Agilent chips, D7: stage D7; for Level of intensity of expression in log2 measured with the Agilent chips, FC: stage FC; for Level of intensity of expression in log2 measured with the Agilent chips, WD: stage WD
Method in brief: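 To benchmark sequencing, the microRNAome was also profiled by hybridizing labelled RNA from identical patient samples to v2 arrays with miRBase v.12.0 human content (866 miRNAs) and 89 viral miRNAs.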

[3] = tested on: basal cells and pyramidal cells of the airway epithelium; test: miRNA expression in sorted basal cells versus pyramidal cells (ciliated + secretory), HTS and Agilent chips; design: species or system human; conditions: for Modulation of expression of the miRNAs in pyramidal cells (323(−)) relative to basal cells 323(+): HTS and Agilent chips; for Intensity of the level of expression in log2 in pyramidal cells (323(−)): pyramidal cells (ciliated + secretory)
Method in brief: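 Read-out is miRNA profiling of total RNA, by Agilent chips or by high-throughput sequencing, in two sorted populations. These were basal cells (CD151+/TF+) and pyramidal ciliated/secretory cells (CD151−/TF−) from airway epithelium of 3 donors.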

Question: Which “Modulation (ratio of the level of intensity of expression in log2 in two stages of differentiation) measured by high-throughput sequencing, D7 − D0” value [1] does the source give for “hsa-miR-99a: human miRNA, SEQ ID No. 52 (AACCCGUAGAUCCGAUCUUGUG; expressed or natural sequence; listed as Homo sapiens)” here?
Answer: Its value is 1.43 log2.

Question: And the “Modulation (ratio of the level of intensity of expression in log2 in two stages of differentiation) measured by high-throughput sequencing, FC − D7” value [1]?
Answer: The value was 0.77 log2.

Question: And the “Modulation (ratio of the level of intensity of expression in log2 in two stages of differentiation), D7 − D0” value ([1]; HTS)?
Answer: The value was 1.43 log2.

Question: What about the “Modulation (ratio of the level of intensity of expression in log2 in two stages of differentiation), FC − D7” value ([1]; HTS) of the same substance?
Answer: The value was 0.77 log2.

Question: What about the “Modulation (ratio of the level of intensity of expression in log2 in two stages of differentiation), WD − FC” value ([1]; HTS) of the same substance?
Answer: The value was 0.69 log2.

Question: What about the “Abundance (%), D0” value ([1]; HTS, ALI-D0) of the same substance?
Answer: Its value is 0.19%.

Question: And the “Abundance (%), D7” value ([1]; HTS, ALI-D7)?
Answer: Its value is 0.52%.

Question: What about the “Abundance (%), FC” value ([1]; HTS, ALI-FC) of the same substance?
Answer: Its value is 0.85%.

Question: And the “Abundance (%), WD” value ([1]; HTS, ALI-WD)?
Answer: The value was 1.03%.

Question: And the “Modulation (ratio of the level of intensity of expression in log2 in two stages of differentiation) measured by high-throughput sequencing, WD − D0” value [1]?
Answer: The value was 2.88 log2.

Question: And the “Modulation (ratio of the level of intensity of expression in log2 in two stages of differentiation) measured by high-throughput sequencing, WD − FC” value [1]?
Answer: Its value is 0.69 log2.

Question: What about the “Level of intensity of expression in log2 At the differentiated stage (WD) measured in HTS” value [1] of the same substance?
Answer: Its value is 9.00 log2.

Question: What about the “Level of intensity of expression in log2 measured by high-throughput sequencing, D0” value [1] of the same substance?
Answer: Its value is 9.77 log2.

Question: What about the “Level of intensity of expression in log2 measured by high-throughput sequencing, D7” value [1] of the same substance?
Answer: The value was 11.19 log2.

Question: And the “Level of intensity of expression in log2 measured by high-throughput sequencing, FC” value [1]?
Answer: Its value is 11.96 log2.

Question: And the “Level of intensity of expression in log2 measured by high-throughput sequencing, WD” value [1]?
Answer: The value was 12.65 log2.

Question: And the “Modulation (ratio of the level of intensity of expression in log2 in two stages of differentiation) measured with the Agilent chips, D7 − D0” value [2]?
Answer: The value was 2.33 log2.

Question: What about the “Modulation (ratio of the level of intensity of expression in log2 at two stages of differentiation), FC − D7” value [2] of the same substance?
Answer: The value was 0.77 log2.

Question: What about the “Modulation (ratio of the level of intensity of expression in log2 in two stages of differentiation) measured with the Agilent chips, FC − D7” value [2] of the same substance?
Answer: Its value is 0.77 log2.

Question: And the “Modulation (ratio of the level of intensity of expression in log2 in two stages of differentiation) measured with the Agilent chips, WD − D0” value [2]?
Answer: Its value is 3.28 log2.

Question: What about the “Modulation (ratio of the level of intensity of expression in log2 at two stages of differentiation), WD − FC” value [2] of the same substance?
Answer: The value was 0.19 log2.

Question: And the “Modulation (ratio of the level of intensity of expression in log2 in two stages of differentiation) measured with the Agilent chips, WD − FC” value [2]?
Answer: Its value is 0.19 log2.

Question: What about the “Level of intensity of expression in log2 measured with the Agilent chips, D0” value [2] of the same substance?
Answer: The value was 5.02 log2.

Question: What about the “Level of intensity of expression in log2 measured with the Agilent chips, D7” value [2] of the same substance?
Answer: Its value is 7.35 log2.

Question: And the “Level of intensity of expression in log2 measured with the Agilent chips, FC” value [2]?
Answer: Its value is 8.12 log2.

Question: What about the “Level of intensity of expression in log2 measured with the Agilent chips, WD” value [2] of the same substance?
Answer: The value was 8.31 log2.

Question: And the “Modulation of expression of the miRNAs in pyramidal cells (323(−)) relative to basal cells 323(+)” value [3]?
Answer: The value was 0.99.

Question: What about the “Intensity of the level of expression in log2 in basal cells (323(+))” value [3] of the same substance?
Answer: Its value is 5.42 log2.

Question: And the “Intensity of the level of expression in log2 in pyramidal cells (323(−))” value [3]?
Answer: The value was 6.40 log2.

Question: How did the “Modulation (ratio of the level of intensity of expression in log2 in two stages of differentiation) measured by high-throughput sequencing, D7 − D0” value [1] turn out when “hsa-miR-100: human miRNA, SEQ ID No. 1 (AACCCGUAGAUCCGAACUUGUG; expressed or natural sequence; listed as Homo sapiens)” was run?
Answer: Its value is −1.05 log2.

Question: What about the “Modulation (ratio of the level of intensity of expression in log2 in two stages of differentiation) measured by high-throughput sequencing, FC − D7” value [1] of the same substance?
Answer: Its value is −2.36 log2.

Question: What about the “Modulation (ratio of the level of intensity of expression in log2 in two stages of differentiation) measured by high-throughput sequencing, WD − D0” value [1] of the same substance?
Answer: Its value is −1.72 log2.

Question: And the “Modulation (ratio of the level of intensity of expression in log2 in two stages of differentiation) measured by high-throughput sequencing, WD − FC” value [1]?
Answer: The value was 1.69 log2.

Question: What about the “Level of intensity of expression in log2 At the differentiated stage (WD) measured in HTS” value [1] of the same substance?
Answer: Its value is 9.00 log2.

Question: What about the “Level of intensity of expression in log2 measured by high-throughput sequencing, D0” value [1] of the same substance?
Answer: Its value is 10.72 log2.

Question: What about the “Level of intensity of expression in log2 measured by high-throughput sequencing, D7” value [1] of the same substance?
Answer: Its value is 9.67 log2.

Question: And the “Level of intensity of expression in log2 measured by high-throughput sequencing, FC” value [1]?
Answer: Its value is 7.32 log2.

Question: What about the “Level of intensity of expression in log2 measured by high-throughput sequencing, WD” value [1] of the same substance?
Answer: The value was 9.00 log2.

Question: What about the “Modulation (ratio of the level of intensity of expression in log2 in two stages of differentiation) measured with the Agilent chips, D7 − D0” value [2] of the same substance?
Answer: Its value is −0.46 log2.

Question: What about the “Modulation (ratio of the level of intensity of expression in log2 at two stages of differentiation), FC − D7” value [2] of the same substance?
Answer: The value was −1.25 log2.

Question: What about the “Modulation (ratio of the level of intensity of expression in log2 in two stages of differentiation) measured with the Agilent chips, FC − D7” value [2] of the same substance?
Answer: Its value is −1.25 log2.

Question: What about the “Modulation (ratio of the level of intensity of expression in log2 in two stages of differentiation) measured with the Agilent chips, WD − D0” value [2] of the same substance?
Answer: Its value is −1.49 log2.

Question: And the “Modulation (ratio of the level of intensity of expression in log2 at two stages of differentiation), WD − FC” value [2]?
Answer: The value was 0.22 log2.

Question: What about the “Modulation (ratio of the level of intensity of expression in log2 in two stages of differentiation) measured with the Agilent chips, WD − FC” value [2] of the same substance?
Answer: The value was 0.22 log2.

Question: And the “Level of intensity of expression in log2 measured with the Agilent chips, D0” value [2]?
Answer: The value was 8.00 log2.

Question: And the “Level of intensity of expression in log2 measured with the Agilent chips, D7” value [2]?
Answer: The value was 7.55 log2.

Question: What about the “Level of intensity of expression in log2 measured with the Agilent chips, FC” value [2] of the same substance?
Answer: The value was 6.29 log2.

Question: And the “Level of intensity of expression in log2 measured with the Agilent chips, WD” value [2]?
Answer: Its value is 6.52 log2.

Question: What about the “Modulation of expression of the miRNAs in pyramidal cells (323(−)) relative to basal cells 323(+)” value [3] of the same substance?
Answer: Its value is 1.62.

Question: What about the “Intensity of the level of expression in log2 in basal cells (323(+))” value [3] of the same substance?
Answer: The value was 3.28 log2.

Question: What about the “Intensity of the level of expression in log2 in pyramidal cells (323(−))” value [3] of the same substance?
Answer: Its value is 4.90 log2.

Reference: patent US9023821B2, “Use of MicroRNA for treating diseases associated with a dysfunction of the cilia in multiciliated epithelial cells” (Centre National de la Recherche Scientifique, priority 2009, dated 2015)
